Columns and labels:
MCF7 = experiment: Cytotoxicity against human MCF7 cells assessed as cell proliferation after 24 hrs by CCK-8 assay; type: functional, cell-based; settings: MCF7, 24 h
HeLa = experiment: Cytotoxicity against human HeLa cells assessed as cell proliferation after 24 hrs by CCK-8 assay; type: functional, cell-based
[1] = Cytotoxicity against human HO8910 cells assessed as cell proliferation after 24 hrs by CCK-8 assay; type: functional, cell-based; settings: HO-8910, 24 h
A549 = experiment: Cytotoxicity against human A549 cells assessed as cell proliferation after 24 hrs by CCK-8 assay; type: functional, cell-based; settings: A549, 24 h
[2] = Cytotoxicity against human T24 cells assessed as cell proliferation after 24 hrs by CCK-8 assay; type: functional, cell-based; settings: T-24, 24 h
[3] = Cytotoxicity against human BGC823 cells assessed as cell proliferation after 24 hrs by CCK-8 assay; type: functional, cell-based; settings: BGC-823, 24 h
[4] = Cytotoxicity against mouse NIH/3T3 cells assessed as cell proliferation after 24 hrs by CCK-8 assay; type: cell-based; settings: NIH3T3, 24 h

C/C(=C\c1ccc(-c2ccc(C)cc2)o1)C(N)=O
IC50 (MCF7): > 50 µM | IC50 (HeLa): 4.59 µM | IC50 [1]: 1.66 µM | IC50 (A549): > 50 µM | IC50 [2]: > 50 µM | IC50 [3]: > 50 µM | IC50 [4]: > 50 µM

C/C(=C\c1cc(-c2ccc([N+](=O)[O-])cc2)cs1)C(N)=O
IC50 (MCF7): 1.21 µM | IC50 (HeLa): 2.9 µM | IC50 [1]: 2.38 µM | IC50 (A549): 3.5 µM | IC50 [2]: > 50 µM | IC50 [3]: > 50 µM | IC50 [4]: > 50 µM

C/C(=C\c1nc(-c2ccc(F)cc2)cs1)C(N)=O
IC50 (MCF7): 3.3 µM | IC50 (HeLa): 5.4 µM | IC50 [1]: 4.45 µM | IC50 (A549): 13.2 µM | IC50 [2]: > 50 µM | IC50 [3]: > 50 µM | IC50 [4]: > 50 µM

C/C(=C\c1cc(-c2ccc(Cl)cc2)cs1)C(N)=O
IC50 (MCF7): 17.1 µM | IC50 (HeLa): > 50 µM | IC50 [1]: > 50 µM | IC50 (A549): > 50 µM | IC50 [2]: > 50 µM | IC50 [3]: > 50 µM | IC50 [4]: > 50 µM

C/C(=C\c1cc(-c2cccnc2)co1)C(N)=O
IC50 (MCF7): 13.2 µM | IC50 (HeLa): > 50 µM | IC50 [1]: 8.64 µM | IC50 (A549): 6.62 µM | IC50 [2]: > 50 µM | IC50 [3]: > 50 µM | IC50 [4]: > 50 µM

C/C(=C\c1cc(-c2ccccc2C)cs1)C(N)=O
IC50 (MCF7): 4.92 µM | IC50 (HeLa): 19.4 µM | IC50 [1]: 15.2 µM | IC50 (A549): > 50 µM | IC50 [2]: > 50 µM | IC50 [3]: > 50 µM | IC50 [4]: > 50 µM

C/C(=C\c1cccc(-c2ccc(C)cc2)c1)C(N)=O
IC50 (MCF7): 6.71 µM | IC50 (HeLa): 24.8 µM | IC50 [1]: 26.8 µM | IC50 (A549): 5.1 µM | IC50 [2]: 7.65 µM | IC50 [3]: > 50 µM | IC50 [4]: > 50 µM

C/C(=C\c1cc(-c2ccc3c(c2)OCO3)cs1)C(N)=O
IC50 (MCF7): 3.05 µM | IC50 (HeLa): > 50 µM | IC50 [1]: > 50 µM | IC50 (A549): > 50 µM | IC50 [2]: > 50 µM | IC50 [3]: > 50 µM | IC50 [4]: > 50 µM

C/C(=C\c1cc(-c2ccc(C#N)cc2)cs1)C(N)=O
IC50 (MCF7): 0.24 µM | IC50 (HeLa): 0.25 µM | IC50 [1]: 0.13 µM | IC50 (A549): > 50 µM | IC50 [2]: > 50 µM | IC50 [3]: > 50 µM | IC50 [4]: > 50 µM

C/C(=C\c1cc(C2=CCCC2)co1)C(N)=O
IC50 (MCF7): 15 µM | IC50 (HeLa): 17.6 µM | IC50 [1]: > 50 µM | IC50 (A549): 16.6 µM | IC50 [2]: > 50 µM | IC50 [3]: > 50 µM | IC50 [4]: 49.3 µM

C/C(=C\c1nc(-c2ccccc2)cs1)C(N)=O
IC50 (MCF7): 2.38 µM | IC50 (HeLa): 2.77 µM | IC50 [1]: 3.78 µM | IC50 (A549): > 50 µM | IC50 [2]: > 50 µM | IC50 [3]: > 50 µM | IC50 [4]: > 50 µM

C/C(=C\c1cc(-c2ccccc2)co1)C(N)=O
IC50 (MCF7): 3.34 µM | IC50 (HeLa): 3.28 µM | IC50 [1]: 42.4 µM | IC50 (A549): > 50 µM | IC50 [2]: > 50 µM | IC50 [3]: > 50 µM | IC50 [4]: > 50 µM

C/C(=C\c1cc(-c2ccc(F)nc2)co1)C(N)=O
IC50 (MCF7): 14.1 µM | IC50 (HeLa): > 50 µM | IC50 [1]: 30 µM | IC50 (A549): > 50 µM | IC50 [2]: > 50 µM | IC50 [3]: > 50 µM | IC50 [4]: > 50 µM

C/C(=C\c1cc(-c2ccc(C(F)(F)F)cc2)cs1)C(N)=O
IC50 (MCF7): 50 µM | IC50 (HeLa): > 50 µM | IC50 [1]: > 50 µM | IC50 (A549): > 50 µM | IC50 [2]: > 50 µM | IC50 [3]: > 50 µM | IC50 [4]: > 50 µM

C/C(=C\c1cc(-c2ccc(F)cc2)co1)C(N)=O
IC50 (MCF7): 2.21 µM | IC50 (HeLa): 11.8 µM | IC50 [1]: > 50 µM | IC50 (A549): 14.9 µM | IC50 [2]: > 50 µM | IC50 [3]: > 50 µM | IC50 [4]: > 50 µM

C/C(=C\c1cc(-c2ccc(S(C)(=O)=O)cc2)cs1)C(N)=O
IC50 (MCF7): > 50 µM | IC50 (HeLa): > 50 µM | IC50 [1]: > 50 µM | IC50 (A549): > 50 µM | IC50 [2]: > 50 µM | IC50 [3]: > 50 µM | IC50 [4]: > 50 µM

C/C(=C\c1cc(-c2ccc(C)cc2)co1)C(N)=O
IC50 (MCF7): 1.63 µM | IC50 (HeLa): 12 µM | IC50 [1]: 24.2 µM | IC50 (A549): > 50 µM | IC50 [2]: > 50 µM | IC50 [3]: > 50 µM | IC50 [4]: > 50 µM

C/C(=C\c1nc(-c2ccc(C)cc2)cs1)C(N)=O
IC50 (MCF7): > 50 µM | IC50 (HeLa): 25 µM | IC50 [1]: > 50 µM | IC50 (A549): > 50 µM | IC50 [2]: > 50 µM | IC50 [3]: > 50 µM | IC50 [4]: > 50 µM

C=C1CCC(c2coc(/C=C(\C)C(N)=O)c2)CC1
IC50 (MCF7): 8.47 µM | IC50 (HeLa): 5.01 µM | IC50 [1]: 18 µM | IC50 (A549): > 50 µM | IC50 [2]: > 50 µM | IC50 [3]: > 50 µM | IC50 [4]: > 50 µM

C/C(=C\c1cc(C2=CCCCC2)co1)C(N)=O
IC50 (MCF7): 6.58 µM | IC50 (HeLa): > 50 µM | IC50 [1]: > 50 µM | IC50 (A549): > 50 µM | IC50 [2]: > 50 µM | IC50 [3]: > 50 µM | IC50 [4]: > 50 µM

C/C(=C\c1cc(-c2ccc(F)cc2)cs1)C(N)=O
IC50 (MCF7): 1.44 µM | IC50 (HeLa): 20.8 µM | IC50 [1]: > 50 µM | IC50 (A549): > 50 µM | IC50 [2]: > 50 µM | IC50 [3]: > 50 µM | IC50 [4]: > 50 µM

C/C(=C\c1ccc(-c2ccc(F)cc2)o1)C(N)=O
IC50 (MCF7): 0.97 µM | IC50 (HeLa): 2.03 µM | IC50 [1]: 0.99 µM | IC50 (A549): 1.65 µM | IC50 [2]: 3.32 µM | IC50 [3]: 0.94 µM | IC50 [4]: 0.96 µM

C=Cc1ccc(-c2csc(/C=C(\C)C(N)=O)c2)cc1
IC50 (MCF7): > 50 µM | IC50 (HeLa): > 50 µM | IC50 [1]: > 50 µM | IC50 (A549): > 50 µM | IC50 [2]: > 50 µM | IC50 [3]: > 50 µM | IC50 [4]: > 50 µM

C/C(=C\c1cc(-c2ccc(C)cc2)cs1)C(N)=O
IC50 (MCF7): > 50 µM | IC50 (HeLa): > 50 µM | IC50 [1]: > 50 µM | IC50 (A549): > 50 µM | IC50 [2]: > 50 µM | IC50 [3]: > 50 µM | IC50 [4]: > 50 µM

C/C(=C\c1cccc(-c2ccccc2)c1)C(N)=O
IC50 (MCF7): 6.54 µM | IC50 (HeLa): 15.7 µM | IC50 [1]: 12.6 µM | IC50 (A549): > 50 µM | IC50 [2]: > 50 µM | IC50 [3]: > 50 µM | IC50 [4]: > 50 µM

C/C(=C\c1cc(-c2ccccc2)cs1)C(N)=O
IC50 (MCF7): 2.68 µM | IC50 (HeLa): 12.7 µM | IC50 [1]: > 50 µM | IC50 (A549): > 50 µM | IC50 [2]: > 50 µM | IC50 [3]: > 50 µM | IC50 [4]: > 50 µM

C/C(=C\c1cc(-c2ccc(C)nc2)co1)C(N)=O
IC50 (MCF7): 10.2 µM | IC50 (HeLa): > 50 µM | IC50 [1]: > 50 µM | IC50 (A549): > 50 µM | IC50 [2]: > 50 µM | IC50 [3]: > 50 µM | IC50 [4]: > 50 µM

COc1ccc(-c2csc(/C=C(\C)C(N)=O)c2)cc1
IC50 (MCF7): > 50 µM | IC50 (HeLa): > 50 µM | IC50 [1]: > 50 µM | IC50 (A549): > 50 µM | IC50 [2]: > 50 µM | IC50 [3]: > 50 µM | IC50 [4]: > 50 µM

From ChEMBL document CHEMBL3785086, “Design and synthesis of natural product derivatives with selective and improved cytotoxicity based on a sesquiterpene scaffold” (Bioorg Med Chem Lett, 2016)
